Values of other authors as cited in patent US20180206486A1, “Stable Agricultural Compositions” (Ceradis B.V., priority 2015, published 2018).

Legend:
[1] = system: rodents; details: after oral and dermal administration and inhalatory exposure
[2] = system: downy mildew (Plasmopara viticola); details: in vivo

## Potassium phosphite
[1]
  toxicity in rodents: low toxicity
[2]
  effectiveness as fungicide against downy mildew: effective
